# Data as given in patent US7601687B2, “Mechanism for identifying drugs for the treatment of type II diabetes” (BioCrine AB, priority 2006, dated 2009).
# How the values were obtained:
# [1] = system: insulin mRNA; test: Endogenous insulin mRNA levels in isolated islets of wild type and βIRKO mice; type: cell-based, mouse; conditions: 16.7 mM glucose or 5 mU insulin/ml
# Procedure: (§1) RNA was prepared 60 min after start of stimulation. Amounts of insulin, βGK and β-actln mRNA were quantified by comparative RT-PCR. […] Data are shown as mean values ± S.E. (n=3). (B-D) On-line monitoring of βGK promoter-driven GFP expression (white bars) and insulin promoter-driven DsRed expression (black bars) in co-transfected HIT cells (B,C) or islet cells (B,D).
# (§2) Insulin-producing HIT-T15 cells were obtained from ATCC. HIT cells were reported to show glucose responsiveness at subphysiological concentrations between 0.1 and 2 mM (Sharma et al., 1995). HIT cells were grown in RPMI 1640 medium supplemented with 100 units/ml penicillin, 100 μg/ml streptomycin, 2 mM glutamine and 10% fetal calf serum at 5% CO2 and 37° C. Pancreatic islets were isolated from normally fed male Wistar rats and from mice by collagenase digestion. […]
# (§3) RNA Analysis Levels of βGK mRNA were analyzed by RNase-protection assays and comparative RT-PCR. […] Quantification of the protected complexes was performed by phosphorimaging. […] Levels of μGK mRNA were analyzed by RT-PCR using primers 5′-[…]-3′(SEQ ID NO: 1) and 5′-[…]-3′(SEQ ID NO: 2) for characterizing μGK mRNA in HIT cells and primers 5′-[…]-3′(SEQ ID NO: 3) and 5′-[…]-3′(SEQ ID NO: 4) for μGK mRNA in rat and mouse pancreatic islets and islet cells. Levels of μ-actin mRNA were analyzed by RT-PCR using primers 5′-[…]-3′(SEQ ID NO: 5) and 5′-[…]-3′(SEQ ID NO: 6). […]
# [2] = system: βGK mRNA; test: Endogenous βGK mRNA levels in isolated islets of wild type and βIRKO mice; type: cell-based, mouse; conditions: 16.7 mM glucose or 5 mU insulin/ml
# Procedure: as §1, §2, §3
substance,measurement,setting,value
insulin,endogenous insulin mRNA levels upon stimulation,[1]; islets from βIRKO mice,no increase
same,endogenous insulin mRNA levels upon stimulation,[1]; islets of wild type mice,increase
same,endogenous βGK mRNA levels upon stimulation,[2]; islets from βIRKO mice,no increase
same,endogenous βGK mRNA levels upon stimulation,[2]; islets of wild type mice,increase
